The target in assay [1] is T1, Anabaena ADP-Glc PPase (Nostoc sp. PCC 7120 = FACHB-418, UniProt P30521, Q58A).
T1 construct: gene glgC; recombinant from plasmid pAnaE3a in E. coli AC70R1-504, purified, homotetramer, no tag mentioned
Put plainly: colorimetric Pi release assay (PPi hydrolysed by pyrophosphatase), Hill fit. Format: biochemical. As to conditions: read-out: A 0.5. An excerpt:
(§1) colorimetric Pi release assay (PPi hydrolysed by pyrophosphatase), Hill fit on Anabaena ADP-Glc PPase (Ana WT)

Assay [2] has as its target T2, Anabaena ADP-Glc PPase (Ana WT) (Nostoc sp. PCC 7120 = FACHB-418, UniProt P30521).
T2 construct: gene glgC; recombinant from plasmid pAnaE3a in E. coli AC70R1-504, purified, homotetramer, no tag mentioned
Described as above. Format: biochemical. The note with it: read-out: A 0.5.
Text: as §1

In assay [3] the target is T3, Anabaena ADP-Glc PPase (Nostoc sp. PCC 7120 = FACHB-418, UniProt P30521, W96A).
T3 construct: gene glgC; recombinant from plasmid pAnaE3a in E. coli AC70R1-504, purified, homotetramer, no tag mentioned
T3 sequence (P30521 whole entry W96A): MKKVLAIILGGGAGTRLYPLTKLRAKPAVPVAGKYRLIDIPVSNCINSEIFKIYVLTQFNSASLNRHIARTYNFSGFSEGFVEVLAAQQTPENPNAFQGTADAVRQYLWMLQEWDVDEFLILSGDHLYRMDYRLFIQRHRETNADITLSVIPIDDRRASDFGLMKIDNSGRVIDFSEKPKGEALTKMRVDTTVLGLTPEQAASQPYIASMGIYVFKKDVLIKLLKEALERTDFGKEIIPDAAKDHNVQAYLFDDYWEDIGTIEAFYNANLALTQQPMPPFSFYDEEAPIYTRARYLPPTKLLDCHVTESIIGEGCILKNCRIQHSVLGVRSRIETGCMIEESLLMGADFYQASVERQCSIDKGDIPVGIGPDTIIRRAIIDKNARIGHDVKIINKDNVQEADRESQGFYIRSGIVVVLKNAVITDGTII
Described as above. Format: biochemical. As to conditions: read-out: A 0.5.
Text: as §1

Assay [4] addresses T4, potato tuber ADP-Glc PPase (StuS/StuL) (Solanum tuberosum, UniProt P23509+Q00081).
T4 sequence (P23509 71-521 limits assumed): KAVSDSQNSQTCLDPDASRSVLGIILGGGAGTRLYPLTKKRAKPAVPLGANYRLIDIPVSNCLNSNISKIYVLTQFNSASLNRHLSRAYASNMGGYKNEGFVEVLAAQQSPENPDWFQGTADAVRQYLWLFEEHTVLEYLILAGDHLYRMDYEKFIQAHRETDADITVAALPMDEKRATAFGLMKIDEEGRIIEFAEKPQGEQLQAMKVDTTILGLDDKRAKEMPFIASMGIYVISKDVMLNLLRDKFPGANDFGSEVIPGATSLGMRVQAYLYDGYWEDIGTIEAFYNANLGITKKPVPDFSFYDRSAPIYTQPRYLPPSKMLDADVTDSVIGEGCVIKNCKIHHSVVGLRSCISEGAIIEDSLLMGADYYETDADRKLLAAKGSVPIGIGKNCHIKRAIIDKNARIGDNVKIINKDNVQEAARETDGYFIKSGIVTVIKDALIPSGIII
T4 sequence (Q00081 7-470): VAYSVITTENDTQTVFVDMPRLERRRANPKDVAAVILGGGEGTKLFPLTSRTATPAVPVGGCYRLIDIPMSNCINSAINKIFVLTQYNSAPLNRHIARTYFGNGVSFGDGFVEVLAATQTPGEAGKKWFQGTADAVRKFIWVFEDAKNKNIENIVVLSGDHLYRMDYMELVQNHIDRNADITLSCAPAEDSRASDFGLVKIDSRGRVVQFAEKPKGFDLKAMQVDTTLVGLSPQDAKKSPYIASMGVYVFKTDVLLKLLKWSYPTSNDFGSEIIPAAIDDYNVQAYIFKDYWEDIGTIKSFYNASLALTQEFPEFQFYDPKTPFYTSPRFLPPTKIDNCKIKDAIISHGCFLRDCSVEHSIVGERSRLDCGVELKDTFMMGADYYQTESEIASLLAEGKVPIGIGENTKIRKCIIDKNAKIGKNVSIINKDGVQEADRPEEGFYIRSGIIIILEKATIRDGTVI
As to conditions: read-out: A 0.5; allosteric activator; 1.5 mM ATP, 0.5 mM [14C]Glc-1P, 7 mM MgCl2, 50 mM HEPPS pH 8.0, 37°C.

T1 sequence (P30521 whole entry Q58A): as the sequence (P30521 whole entry W96A) above, with Q58A, A96W counted along it
T2 sequence (P30521 whole entry): as the sequence (P30521 whole entry W96A) above, with A96W counted along it

`O=C(O)[C@H](O)COP(=O)(O)O` [3-PGA, 3-phosphoglycerate]: the EC50 in assay [1] was found to be 95 ± 8 µM; in assay [2], 76 ± 4 µM; in assay [3] it was 83 ± 8 µM; in assay [4], 54 ± 4 µM.

Values taken from paper PMC3691274, “Unraveling the Activation Mechanism of the Potato Tuber ADP-Glucose Pyrophosphorylase” (PLoS ONE, 2013).
